Legend:
hERG = target: T1, hERG (Homo sapiens, UniProt Q12809); test: hERG tail current inhibition, patch clamp assay; type: cell-based; details: human, HEK293 cells (hERG study), 10 μM, HEK293 cells, read-out: hERG % inhib. (10 μM)
T1 construct: expressed in transfected cells; host or cells: HEK293
Experimental: (§1) For hERG study, HEK293 cells were cultured (1–7 days) in DMEM/GlutaMax-1 + 10% FBS and were plated on collagen-coated dishes (about 2×10^4 cells/dish). The cell was held at -80 mV. A 50-millisecond pulse to -40 mV was delivered to measure the leaking currents, which were subtracted from the tail currents online. […] This paradigm was delivered once every 5 seconds to monitor the current amplitude. After the current amplitude stabilized, the test compound was delivered to the extracellular medium by a rapid solution changer perfusion system. During perfusion, the cell was repetitively stimulated with the protocol described above, and the current amplitude was continuously monitored. Data were acquired and analyzed by using pClamp (Axon Instruments), and Excel (Microsoft), and are reported as mean and individual values. The degree of inhibition (%) was obtained by measuring the tail current amplitude before and after drug superfusion (the difference current was normalized to control and multiplied by 100 to obtain the percent of inhibition). […] The concentration-response relationship of each compound was constructed from the percentage reductions of current amplitude by sequential concentrations. β2-adrenergic receptor CHO expressing cells were used for the receptor inhibition assay as described. The results are expressed as a percent of inhibition of control specific binding (100 - (measured specific binding/control specific binding) × 100)) obtained in the presence of the test compounds. The specific ligand binding to the receptors is defined as the difference between the total binding and the nonspecific binding determined in the presence of an excess of unlabelled ligand. All the in-vivo experiments were carried out at the Regina Elena Cancer Institute. All procedures involving animals and care were performed in compliance with our institutional animal care guidelines and with international directives (directive 2010/63/EU of the European parliament and of the council; Guide for the Care and Use of Laboratory Animals, United States National Research Council, 2011).

[1] = target: T2, hERG (human Ether-a-go-go Related Gene) tail current (Homo sapiens, UniProt Q12809); test: hERG tail current inhibition, patch clamp assay; type: cell-based
T2 construct: expressed in transfected cells; host or cells: HEK293
Experimental: as §1

[2] = target: T3, human recombinant β2 adrenergic receptor (Homo sapiens, UniProt P07550); test: β2-adrenergic receptor binding assay (CHO expressing cells)
T3 construct: expressed in transfected cells; host or cells: CHO
Experimental: as §1, with “Institute.” for “Institute. All procedures involving animals and care were performed in compliance with our institutional animal care guidelines and with international directives (directive 2010/63/EU of the European parliament and of the council; Guide for the Care and Use of Laboratory Animals, United States National Research Council, 2011).”
Inhibition of receptor was reported as inhibition of control specific binding (100 - (measured specific binding/control specific binding) × 100) obtained in the presence of the test compounds.

[3] = test system: Telomere dysfunction Induced Foci in BJ-EHLT fibroblasts; test: TIF analysis (γH2AX/TRF1 co-localization); type: cell-based, human; details: 24 hrs; for number of TIFs per nucleus: mean
Experimental: Cells were fixed in 2% formaldehyde and permeabilized in 0.25% Triton X100 in PBS for 5 min at room temperature. For immunolabeling, cells were incubated with primary antibody, then washed in PBS and incubated with the secondary antibodies. The following primary antibodies were used: pAb and mAb anti-TRF1 (Abcam Ltd.; Cambridge UK); mAb (Upstate, Lake Placid, NY) and pAb anti-γH2AX (Abcam). The following secondary antibody were used: TRITC conjugated Goat anti Rabbit, FITC conjugated Goat anti Mouse (Jackson ImmunoResearch Europe Ltd., Suffolk, UK). Fluorescence signals were recorded by using a Leica DMIRE2 microscope equipped with a Leica DFC 350FX camera and elaborated by a Leica FW4000 deconvolution software (Leica, Solms, Germany). This system permits to focus single planes inside the cell generating 3D high-resolution images. For quantitative analysis of γH2AX positivity, 200 cells on triplicate slices were scored. For TIF’s analysis, in each nucleus a single plane was analyzed and at least 50 nuclei per sample were scored.

[4] = test system: h-Tel 5'-d[AGGG(TTAGGG)3]-3' (DNA, G4) AGGGTTAGGGTTAGGGTTAGGG; test: CD melting at 290 nm; details: 110 mM K+ (100 mM KCl, potassium phosphate), 10 mM potassium phosphate, pH 7.0, 4 μM DNA, 3.5 mol equiv. ligand
[5] = test system: h-Tel quadruplex (Q) DNA, 5'-biotin-d[AG3(T2AG3)3] (DNA, G4) AGGGTTAGGGTTAGGGTTAGGG; test: surface plasmon resonance; details: 200 mM KCl; 10 mM HEPES, 3 mM EDTA, 0.01% P20, pH 7.4
[6] = test system: duplex (D) DNA hairpin, 5'-biotin-CGA3T3C(CT)2GA3T3CG (DNA, hairpin) CGAAATTTCCTCTGAAATTTCG; test: surface plasmon resonance; details: 200 mM KCl; 10 mM HEPES, 3 mM EDTA, 0.01% P20, pH 7.4
[7] = test system: h-Tel quadruplex DNA 5′-d[AGGG(TTAGGG)3]-3′; test: Surface plasmon resonance, quadruplex DNA; details: for Surface plasmon resonance K, Quadruplex (Q) DNA: 10 mM HEPES, 200 mM KCl, 3 mM EDTA, 0.01% P20, pH 7.4, equilibrium binding constant
Text: Oligonucleotides 5′-biotin-d[AG3(T2AG3)3] quadruplex and 5′-biotin-CGA3T3C(CT)2GA3T3CG were purchased from Midland Certified Reagent Company (Midland, TX).
In the present work these measurements were repeated comparing ligand binding to the same h-Tel sequence but with a different duplex sequence 5′-d[CGA3T3C(CT)2GA3T3CG]-3′ as comparator.

[8] = test system: h-Tel 5'-d[AGGG(TTAGGG)3]-3' (DNA, G4) AGGGTTAGGGTTAGGGTTAGGG; test: CD spectroscopy, induced anti-parallel structure; details: no significant K+; 298 K; 3.5 molar equivalents of ligand; band at 290 nm emerges

T3 sequence (P07550 whole entry): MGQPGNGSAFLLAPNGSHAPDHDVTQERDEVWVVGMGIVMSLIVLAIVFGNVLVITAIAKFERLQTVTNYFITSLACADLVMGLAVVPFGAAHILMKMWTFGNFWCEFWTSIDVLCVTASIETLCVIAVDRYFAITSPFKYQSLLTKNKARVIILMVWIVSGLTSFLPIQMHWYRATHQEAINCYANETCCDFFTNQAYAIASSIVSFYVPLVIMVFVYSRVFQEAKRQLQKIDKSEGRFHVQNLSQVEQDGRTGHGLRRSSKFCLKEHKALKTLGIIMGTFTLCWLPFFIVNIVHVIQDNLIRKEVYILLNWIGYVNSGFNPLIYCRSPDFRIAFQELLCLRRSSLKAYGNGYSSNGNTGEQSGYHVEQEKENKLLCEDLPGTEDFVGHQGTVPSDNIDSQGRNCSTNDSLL
T1 sequence (Q12809 whole entry): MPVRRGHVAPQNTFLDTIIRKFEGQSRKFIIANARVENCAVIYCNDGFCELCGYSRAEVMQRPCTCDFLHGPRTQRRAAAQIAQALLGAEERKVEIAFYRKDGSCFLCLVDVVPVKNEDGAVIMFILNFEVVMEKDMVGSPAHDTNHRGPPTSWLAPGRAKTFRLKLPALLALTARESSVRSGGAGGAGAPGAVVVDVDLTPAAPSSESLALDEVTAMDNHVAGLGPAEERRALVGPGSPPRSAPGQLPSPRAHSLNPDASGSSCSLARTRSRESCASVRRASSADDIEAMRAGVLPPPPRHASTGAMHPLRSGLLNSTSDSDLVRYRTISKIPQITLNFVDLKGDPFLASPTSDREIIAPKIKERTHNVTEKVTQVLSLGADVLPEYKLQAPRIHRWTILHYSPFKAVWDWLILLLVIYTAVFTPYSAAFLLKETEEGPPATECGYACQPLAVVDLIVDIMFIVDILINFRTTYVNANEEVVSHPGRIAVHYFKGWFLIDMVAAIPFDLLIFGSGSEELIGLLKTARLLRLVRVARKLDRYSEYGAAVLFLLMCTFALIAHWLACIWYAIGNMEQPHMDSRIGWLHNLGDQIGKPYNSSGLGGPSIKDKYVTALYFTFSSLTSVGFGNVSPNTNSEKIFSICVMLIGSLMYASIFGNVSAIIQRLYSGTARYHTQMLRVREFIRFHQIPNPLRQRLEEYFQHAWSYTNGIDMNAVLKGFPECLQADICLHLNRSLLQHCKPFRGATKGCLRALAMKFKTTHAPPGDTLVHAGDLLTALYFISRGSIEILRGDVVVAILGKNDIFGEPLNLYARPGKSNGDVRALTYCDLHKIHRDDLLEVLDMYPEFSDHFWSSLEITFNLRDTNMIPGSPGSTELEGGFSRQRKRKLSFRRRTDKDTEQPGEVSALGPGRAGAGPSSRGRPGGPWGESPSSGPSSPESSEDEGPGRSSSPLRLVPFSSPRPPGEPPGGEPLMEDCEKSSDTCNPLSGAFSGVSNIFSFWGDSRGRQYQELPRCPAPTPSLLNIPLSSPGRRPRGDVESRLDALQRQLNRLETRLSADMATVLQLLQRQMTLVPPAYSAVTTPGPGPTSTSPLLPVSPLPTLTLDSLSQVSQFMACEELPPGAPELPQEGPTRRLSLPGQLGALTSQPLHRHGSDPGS
T2 sequence (Q12809 whole entry): as above

B2 adrenergic % inhib. (10 μM) ([2]; 10 μM, inhibition of control specific binding, CHO cells) [%] | ∆Tm ([4]; Tm 85 ± 3) [°C] | SMILES | inhibition at 10 µM (hERG) [%] | IC50 [1] [µM] | inhibition at 1 µM ([2]; 1 μM, Cerep ExpresSProfile screen, read-out: % inhibition of ligand binding, β2 adrenergic receptor) [%] | inhibition at 10 µM ([2]; 10 μM, inhibition of control specific binding, CHO cells, read-out: B2 adrenergic % inhib. (10 μM)) [%] | number of TIFs per nucleus [3] | ∆Tm ([4]; Tm 86 ± 3) [°C] | K [5] [M⁻¹] | K [6] [M⁻¹] | Surface plasmon resonance K, Quadruplex (Q) DNA [7] [M⁻¹] | Ratio Q/D (SPR) ([7]; quadruplex K / duplex K) | binding [8] | percentage of TIF-positive cells ([3]; cells with more than four γH2AX/TRF1 co-localizations)
 |  | Cc1cc2c3c([n+](C)c4ccc(F)cc4c3c1)-c1cc(F)ccc1N2C [Compound 1, 3,11-Difluoro-6,8,13-trimethyl-8H-quino[4,3,2-kl]acridinium metho-sulfate] | 100 | 0.2 | > 95 | 100 | ca. eight | 16 | 8.3e+06 | 600000 | 8.3e+06 | 13.8 | yes | 
29 | 15 | CC(=O)Nc1ccc2c(c1)c1cccc3c1c([n+]2C)-c1ccccc1N3C [Compound 3, 3-acetylamino-8,13-dimethyl-8H-quino[4,3,2-kl]-acridinium iodide] | 21 | 18 |  |  | six |  | 8e+06 | 700000 | 8e+06 |  | yes | significant but less pronounced effect

Source: PMC3849007 (Journal of Experimental & Clinical Cancer Research : CR, 2013)
